In publication PMC4788153, “Impact of Cytochrome P450 2D6 Function on the Chiral Blood Plasma Pharmacokinetics of 3,4-Methylenedioxymethamphetamine (MDMA) and Its Phase I and II Metabolites in Humans” (PLoS ONE, 2016):
Structures can show the parent of a compound that is named as a salt. Where two headings read alike, the source gives them in different places.

Assay: Chiral plasma pharmacokinetics of MDMA and its phase I and II metabolites after controlled MDMA administration
Format: in vivo, human
Settings: for reduction of Cmax by bupropion: metabolite stereoisomers, bupropion pretreatment vs placebo (abstract); for AUC(0-t) / Tmax / Cmax / half-life: human, plasma; for change in AUC24 after bupropion pretreatment / change in Cmax after bupropion pretreatment: bupropion+MDMA vs placebo+MDMA, unsigned = increase
Protocol: Blood plasma samples were analyzed non-stereoselectively as reported previously and reanalyzed for the present report using liquid chromatography-mass spectrometry/mass spectrometry after chiral derivatization with Marfey’s reagent as described previously. The method was fully validated, including selectivity, recovery, matrix effects, bias and imprecision, stability, and limit of quantification.

[1] = bupropion vs placebo pretreatment
[2] = both sexes, oral, 125 mg, placebo+MDMA (125 mg), CYP2D6 EM, n=13, plasma, read-out: AUC0-24h R
[3] = both sexes, oral, 125 mg, placebo+MDMA (125 mg), CYP2D6 EM, n=13, plasma, read-out: tmax R
[4] = both sexes, oral, bupropion+MDMA (125 mg), CYP2D6 EM (EM/Bup), n=13, plasma, read-out: AUC0-24h R
[5] = both sexes, oral, bupropion+MDMA (125 mg), CYP2D6 EM (EM/Bup), n=13, plasma, read-out: Cmax R
[6] = both sexes, oral, bupropion+MDMA (125 mg), CYP2D6 EM (EM/Bup), n=13, plasma, read-out: t1/2 R (converted)
[7] = both sexes, oral, bupropion+MDMA (125 mg), CYP2D6 EM (EM/Bup), n=13, plasma, read-out: tmax R
[8] = both sexes, oral, placebo+MDMA (125 mg), CYP2D6 EM, n=13, plasma, read-out: Cmax R
[9] = both sexes, oral, placebo+MDMA (125 mg), CYP2D6 EM, n=13, plasma, read-out: t1/2 R (converted)
[10] = bupropion+MDMA (125 mg), CYP2D6 EM (EM/Bup), n=13, plasma
[11] = placebo+MDMA (125 mg), CYP2D6 EM, n=13, plasma
[12] = placebo+MDMA (125 mg), CYP2D6 IM, n=3, plasma
[13] = placebo-pretreated EMs, same-configuration MDMA enantiomer
[14] = bupropion-pretreated CYP2D6 EMs
[15] = bupropion vs placebo pretreatment, CYP2D6 EMs
[16] = both sexes, oral, 125 mg, placebo+MDMA (125 mg), CYP2D6 EM, n=13, plasma, read-out: AUC0-24h S
[17] = both sexes, oral, 125 mg, placebo+MDMA (125 mg), CYP2D6 EM, n=13, plasma, read-out: Cmax S
[18] = both sexes, oral, 125 mg, placebo+MDMA (125 mg), CYP2D6 EM, n=13, plasma, read-out: t1/2 S (converted)
[19] = both sexes, oral, 125 mg, placebo+MDMA (125 mg), CYP2D6 EM, n=13, plasma, read-out: tmax S
[20] = both sexes, oral, bupropion+MDMA (125 mg), CYP2D6 EM (EM/Bup), n=13, plasma, read-out: AUC0-24h S
[21] = both sexes, oral, bupropion+MDMA (125 mg), CYP2D6 EM (EM/Bup), n=13, plasma, read-out: Cmax S
[22] = both sexes, oral, bupropion+MDMA (125 mg), CYP2D6 EM (EM/Bup), n=13, plasma, read-out: t1/2 S (converted)
[23] = both sexes, oral, bupropion+MDMA (125 mg), CYP2D6 EM (EM/Bup), n=13, plasma, read-out: tmax S
[24] = im, placebo+MDMA (125 mg), CYP2D6 IM, n=3, plasma, read-out: AUC0-24h S
[25] = im, placebo+MDMA (125 mg), CYP2D6 IM, n=3, plasma, read-out: Cmax S
[26] = im, placebo+MDMA (125 mg), CYP2D6 IM, n=3, plasma, read-out: t1/2 S (converted)
[27] = im, placebo+MDMA (125 mg), CYP2D6 IM, n=3, plasma, read-out: tmax S

SMILES	reduction of Cmax by bupropion	metabolite/MDMA ratio, mean constant (after approximately 2 h) (IMs)	metabolite/MDMA ratio, mean initial (highest, first hour) (IMs)	AUC(0-t) [2] [µM·h]	Tmax [3] [h]	AUC(0-t) [4] [µM·h]	Cmax [5] [nM]	half-life [6] [h]	Tmax [7] [h]	Cmax [8] [nM]	half-life [9] [h]	AUCtotal R [10]	change in AUC24 after bupropion pretreatment (CYP2D6 EMs) [%]	change in Cmax after bupropion pretreatment (CYP2D6 EMs) [%]	metabolite/MDMA ratio, mean constant (after approximately 2 h) (bupropion-pretreated EMs)	metabolite/MDMA ratio, mean initial (highest, first hour) (bupropion-pretreated EMs)	AUCtotal R [11]	AUCtotal R [12]	metabolite/MDMA ratio, mean constant (after approximately 2 h) (placebo-pretreated EMs)	metabolite/MDMA ratio, mean initial (highest, first hour) [13]	also measured
CNC(C)Cc1ccc(O)c(OS(=O)(=O)O)c1 (stereo not drawn) [DHMA 3-sulfate]	approximately 40%	–	–	–	–	–	–	–	–	–	–	–	–	–	–	–	–	–	–	–	–
CNC(C)Cc1ccc(OS(=O)(=O)O)c(O)c1 (stereo not drawn) [DHMA 4-sulfate]	approximately 40%	–	–	–	–	–	–	–	–	–	–	–	–	–	–	–	–	–	–	–	–
CNC(C)Cc1ccc(OC2OC(C(=O)O)C(O)C(O)C2O)c(OC)c1 (stereo not drawn) [HMMA glucuronide]	approximately 40%	–	–	–	–	–	–	–	–	–	–	–	–	–	–	–	–	–	–	–	–
CNC(C)Cc1ccc(OS(=O)(=O)O)c(OC)c1 (stereo not drawn) [HMMA sulfate]	approximately 40%	–	–	–	–	–	–	–	–	–	–	–	–	–	–	–	–	–	–	–	change of R/S ratio for Cmax after bupropion pretreatment [1]: +21%
CC(N)Cc1ccc2c(c1)OCO2 (stereo not drawn) [MDA, 3,4-methylenedioxyamphetamine]	–	–	–	–	–	–	–	–	–	–	–	–	–	–	–	–	–	–	–	–	change of R/S ratio for AUC24 after bupropion pretreatment [1]: -17%; change of R/S ratio for Cmax after bupropion pretreatment [1]: -19%
CN[C@H](C)Cc1ccc(O)c(OS(=O)(=O)O)c1 [R-DHMA 3-sulfate]	–	0.10	1.9	2.4	2.8	0.96	50	46.2	3.8	150	20.2	3.1 (2.1) μmol/l*h-1	-61	-68	0.10	0.4	4.7 (2.5) μmol/l*h-1	2.6 (2.4) μmol/l*h-1	0.22	9.9	–
CN[C@H](C)Cc1ccc(OS(=O)(=O)O)c(O)c1 [R-DHMA 4-sulfate]	–	0.05	0.94	1.3	2	0.71	37	49.9	3.2	80	17.5	2.9 (2.2) μmol/l*h-1	-43	-54	0.05	0.89	2.4 (1.7) μmol/l*h-1	1.5 (1.0) μmol/l*h-1	0.13	4.9	–
CNC(C)Cc1ccc(OC2OC(C(=O)O)C(O)C(O)C2O)c(OC)c1 (stereo not drawn) [R-HMMA glucuronide]	–	0.05	0.05	3.3	3.7	0.96	49	31.7	7.6	210	16	2.3 (1.5) μmol/l*h-1	-71	-77	0.05	0.09	5.5 (4.3) μmol/l*h-1	2.0 (1.7) μmol/l*h-1	0.40	1.3	tonset (time of first detection), mean [14]: 0.73 h; tonset (time of first detection), mean (placebo-pretreated CYP2D6 EMs): 0.41 h
CN[C@H](C)Cc1ccc(OS(=O)(=O)O)c(OC)c1 [R-HMMA sulfate]	–	0.13	1.9	5.5	2	2.1	140	34.4	4.2	370	17.5	7.1 (4.6) μmol/l*h-1	-62	-62	0.13	0.31	9.6 (2.7) μmol/l*h-1	3.4 (1.3) μmol/l*h-1	0.54	15.8	tonset (time of first detection), mean [14]: 0.53 h; tonset (time of first detection), mean (placebo-pretreated CYP2D6 EMs): 0.33 h
CC(N)Cc1ccc2c(c1)OCO2 (stereo not drawn) [R-MDA, 3,4-methylenedioxyamphetamine]	–	–	–	0.26	12.5	0.19	10	–	14.9	14	–	–	-26	-27	–	–	–	–	–	–	–
CN[C@H](C)Cc1ccc2c(c1)OCO2 [R-MDMA, 3,4-methylenedioxymethamphetamine]	–	–	–	8.7	2.9	10.9	750	10.8	3.3	690	8.2	14.2 (3.7) μmol/l*h-1	25	9	–	–	10.4 (3.6) μmol/l*h-1	14.5 (4.3) μmol/l*h-1	–	–	prolongation of t1/2 after bupropion pretreatment [15]: 31%; reduction of Cl/F after bupropion pretreatment [15]: -23%; CL/F R [10]: 31.3 (8.2) l/h; CL/F R [11]: 40.4 (14.2) l/h; CL/F R [12]: 29.8 (7.4) l/h
CN[C@@H](C)Cc1ccc(O)c(OS(=O)(=O)O)c1 [S-DHMA 3-sulfate]	–	0.42	8.8	–	–	–	–	–	–	–	–	–	-56	-67	0.34	1.8	–	–	1.1	33	AUC(0-t) [16]: 6.3 µM·h; Cmax [17]: 590 nM; half-life [18]: 7.3 h; Tmax [19]: 1.5 h; AUC(0-t) [20]: 2.8 µM·h; Cmax [21]: 200 nM; half-life [22]: 11.3 h; Tmax [23]: 2.4 h; AUCtotal S [10]: 3.7 (2.1) μmol/l*h-1; AUC(0-t) [24]: 3 µM·h; Cmax [25]: 280 nM; half-life [26]: 7 h; Tmax [27]: 1.9 h; AUCtotal S [11]: 7.1 (3.1) μmol/l*h-1; AUCtotal S [12]: 3.3 (1.1) μmol/l*h-1
CN[C@@H](C)Cc1ccc(OS(=O)(=O)O)c(O)c1 [S-DHMA 4-sulfate]	–	0.05	0.91	–	–	–	–	–	–	–	–	–	-50	-61	0.04	0.60	–	–	0.11	3.8	AUC(0-t) [16]: 0.64 µM·h; Cmax [17]: 55 nM; half-life [18]: 8.1 h; Tmax [19]: 1.7 h; AUC(0-t) [20]: 0.32 µM·h; Cmax [21]: 21 nM; half-life [22]: 14.3 h; Tmax [23]: 2.4 h; AUCtotal S [10]: 0.48 (0.19) μmol/l*h-1; AUC(0-t) [24]: 0.4 µM·h; Cmax [25]: 29 nM; half-life [26]: 12.1 h; Tmax [27]: 2.1 h; AUCtotal S [11]: 0.80 (0.37) μmol/l*h-1; AUCtotal S [12]: 0.59 (0.30) μmol/l*h-1
